Holding throughout (assay type): cell-based
One assay has as its system E. coli. In words: MMC99% of modified peptides, E. coli (Example 25). Particulars: BHI diluted 1/100, pH approximately 6.7-6.9 (Table 21). As to the method:
(§1) In the examples, the minimal microbicidal concentrations (MMC) and minimal inhibitory concentrations (MIC) were determined as follows, unless otherwise specified in the examples. Bacterial or fungal strains were cultured in BHI medium over night at 37° C. A volume of the culture was transferred to a new tube with BHI and incubated for two more hours. Thereafter the cells were spun down and the pellet was suspended in BHI medium diluted 1/100 (1% BHI). The concentration of bacterial or fungal cells was spectrophotometrically determined at 650 nm. The microbial concentrations were also determined by viable counts. Peptides serially diluted in 1% BHI by twofold or tenfold steps were added in triplicate to the wells of a microtiterplate (200 μl per well). The bacterial or fungal cell solutions were added in 10 μl volumes to give a final concentration of approximately 1-5×10^5 cells per ml in the well. The microplate was incubated at 37° C. in a humid chamber for two hours. Thereafter 5 μl was taken from each well and added as a drop onto a blood agar plate and incubated over night at 37° C. The microplate was incubated for another 20 hours at 37° C. and thereafter analysed spectrophotometrically at 650 nm in a microplate reader (Emax, Molecular Devices, USA). The concentration of peptide causing a 99% reduction of the inoculum after 2 hours of incubation was defined as the MMC99%. The MIC value was defined as the concentration giving no increase in the absorbance value above the background level after 20 hours of incubation.
(§2) In this example the fungicidal, and bactericidal effects of the different peptides obtained in examples 18-21 were studied. C. albicans, E. coli and S. aureus, respectively, were incubated in BHI medium diluted 1/100, with a pH of approximately 6.7-6.9. The concentration of each peptide needed to kill 99% of the microorganisms (MMC99%) was determined.

The subject of the next assay is C. albicans. In words: MMC99% of modified peptides, C. albicans (Example 25). Particulars: BHI diluted 1/100, pH approximately 6.7-6.9 (Table 21). As to the method: as §1, §2
Assay [1] has as its system S. aureus. In words: MMC99% of modified peptides, S. aureus (Example 25). Particulars: BHI diluted 1/100, pH approximately 6.7-6.9 (Table 21). As to the method: as §1, §2
The test system of a further assay is C. albicans (ATCC64549). Conditions: for MIC: ATCC64549; for MMC99%: C. albicans, tested at 1, 10, 25 and 100 μg/ml of peptide. As to the method: as §1
(§3) C. albicans (ATCC64549) and E. coli O6, respectively, were incubated with the different peptides. The experiments were performed with 1, 10, 25 and 100 μg/ml of peptide.

The test system of another assay is E. coli O6. Conditions: for MMC99%: E. coli O6, tested at 1, 10, 25 and 100 μg/ml of peptide; for MIC: O6. As to the method:
as §1, §3

The next assay relates to S. epidermis. In words: killing of bacteria at fixed peptide concentration, S. epidermis (Example 12). Particulars: peptide 25 μg/ml. As to the method: (§4) In this example, the peptides according to the invention were used to study the effect on the killing of different bacteria.
(§5) The peptides were used at a concentration of 25 μg/ml.

Assay [2] concerns S. aureus. In words: killing of bacteria at fixed peptide concentration, S. aureus (Example 12). Conditions: peptide 25 μg/ml. As to the method: as §4, §5
In assay [3] the test system is C. albicans yeast cells (ATCC64549). The experiment in a line: killing and growth inhibition of C. albicans at pH 4.5 (Example 11). Details: key to C. albicans inhibition (OD650): + = no increase in OD650 is seen; − = OD650 continues to increase. Conditions: pH 4.5, 1% BHI, 25 μg/ml of the peptide; for C. albicans inhibition (OD650): OD650 after an additional 18 hours; for C. albicans killing: 99% / C. albicans killing: 100%: 2 hours. As to the method: C. albicans yeast cells (ATCC64549) were incubated for 2 hours at pH 4.5 in BHI medium diluted to 1% of the original concentration containing 25 µg/ml of the peptide. Thereafter the fungal solutions were cultured on blood agar plates. OD650 was measured after incubation during an additional 18 hours. The fungicidal effect of the peptides on C. albicans was determined as the ability of the peptide to kill 100% and 99%, respectively, of the fungus, while the growth inhibitory effect was determined by measuring the OD650. An inhibitory effect existed when no increase in OD650 was recorded.

The next assay has as its system K. pneumoniae. The experiment in a line: killing of bacteria at fixed peptide concentration, K. pneumoniae (Example 12). Particulars: peptide 25 μg/ml. As to the method: as §4, §5
The subject of a further assay is P. aeruginosa. The experiment in a line: killing of bacteria at fixed peptide concentration, P. aeruginosa (Example 12). Particulars: peptide 25 μg/ml. As to the method: as §4, §5
For another assay, the system named is E. faecalis. The experiment in a line: killing of bacteria at fixed peptide concentration, E. faecalis (Example 12). Conditions: peptide 25 μg/ml. As to the method:
as §4, §5

Square brackets hold non-standard residues; d marks the D form. Ends that are not written are not given here. Nle = CCCC[C@H](N)C(=O)O; Orn = NCCC[C@H](N)C(=O)O Some results are limits rather than exact numbers.

By MIC is commonly meant the lowest concentration found to suppress growth.

For the substance “A-F-Q-W-Q-R-N-M-R-K-V-R (AFQWQRNMRKVR) [SEQ. ID. NO. 68]”, the MMC99% is recorded as greater than 25 in the assay with E. coli, 12 with C. albicans and 28 in the assay with S. aureus [1].
As to “Ac-ATKCFQWQRNMRKVR-NH2 (N-terminus and C-terminus assumed) [Peptide 63]”, in the assay with C. albicans (ATCC64549), the MIC amounted to 10 µg/mL and the MMC99% is 10 µg/mL. In addition, in the assay with E. coli O6, the MMC99% was determined as 10 µg/mL and the minimum inhibitory concentration (MIC) amounted to 10 µg/mL.
In the assay with C. albicans (ATCC64549), “Ac-PEATKCFQWQRNMRKVR-NH2 (N-terminus and C-terminus assumed) [Peptide 67]” showed an MIC of 10 µg/mL and an MMC99% of 10 µg/mL. Also, in the assay with E. coli O6, the MMC99% turned out to be 10 µg/mL and the MIC was determined as 10 µg/mL.
“Ac-TKAFKWQRDMRKVR-NH2 (N-terminus and C-terminus assumed) [Peptide 53]”: in the assay with C. albicans (ATCC64549), the MIC is 10 µg/mL and the MMC99% stood at 10 µg/mL. Besides, in the assay on E. coli O6, the MMC99% stood at 10 µg/mL and the MIC amounted to 10 µg/mL.
Turning to “C-A-Q-W-Q-R-N-M-R-K-V-R (CAQWQRNMRKVR) [SEQ. ID. NO. 69]”, the values for the MMC99% in the assay with E. coli, with C. albicans and in the assay with S. aureus [1] were 12, 12 and 14, respectively.
As to “C-F-A-W-Q-R-N-M-R-K-V-R (CFAWQRNMRKVR) [SEQ. ID. NO. 70]”, the values for the MMC99% with E. coli, in the assay with C. albicans and in the assay with S. aureus [1] were 6, 6 and 7, respectively.
Take “C-F-Q-A-Q-R-N-M-R-K-V-R (CFQAQRNMRKVR) [SEQ. ID. NO. 71]”: the MMC99% in the assay on E. coli is given as 25; with C. albicans, 12; in the assay with S. aureus [1], 14.
With “C-F-Q-L-Q-R-N-M-R-K-V-R (CFQLQRNMRKVR) [SEQ. ID. NO. 80]”, the values for the MMC99% in the assay with E. coli, in the assay on C. albicans and in the assay on S. aureus [1] were 12, 6 and 7, respectively.
In the same order, the values of “C-F-Q-W-A-R-N-M-R-K-V-R (CFQWARNMRKVR) [SEQ. ID. NO. 72]” are 12, 12 and 7.
“C-F-Q-W-E-R-N-M-R-K-V-R (CFQWERNMRKVR) [SEQ. ID. NO. 84]”: the MMC99% is recorded as 25 with E. coli, 12 in the assay with C. albicans and 14 with S. aureus [1].
Turning to “C-F-Q-W-Q-A-N-M-R-K-V-R (CFQWQANMRKVR) [SEQ. ID. NO. 73]”, the MMC99% was 12 in the assay with E. coli, 12 in the assay on C. albicans and 7 in the assay on S. aureus [1].
“C-F-Q-W-Q-E-N-M-R-K-V-R (CFQWQENMRKVR) [SEQ. ID. NO. 85]”: the MMC99% was greater than 25 in the assay on E. coli, greater than 50 in the assay with C. albicans and greater than 28 with S. aureus [1].
As for “C-F-Q-W-Q-K-N-M-R-K-V-R (CFQWQKNMRKVR) [SEQ. ID. NO. 81]”, the MMC99% with E. coli was found to be 6; with C. albicans it was 6; in the assay on S. aureus [1], 7.
In the case of “C-F-Q-W-Q-R-A-M-R-K-V-R (CFQWQRAMRKVR) [SEQ. ID. NO. 74]”, the MMC99% with E. coli is on record as 6; in the assay on C. albicans, 6; with S. aureus [1], 3.5.
Turning to “C-F-Q-W-Q-R-E-M-R-K-V-R (CFQWQREMRKVR) [SEQ. ID. NO. 86]”, the MMC99% worked out at 25 in the assay on E. coli, 25 in the assay on C. albicans and 14 with S. aureus [1].
On to “C-F-Q-W-Q-R-N-A-R-K-V-R (CFQWQRNARKVR) [SEQ. ID. NO. 75]”, for which the values for the MMC99% in the assay with E. coli, in the assay on C. albicans and in the assay with S. aureus [1] were 12, 25 and 7, respectively.
Regarding “C-F-Q-W-Q-R-N-L-R-K-V-R (CFQWQRNLRKVR) [SEQ. ID. NO. 82]”, the MMC99% in the assay with E. coli is listed as 12; with C. albicans, 6; in the assay on S. aureus [1] it was 7.
Regarding “C-F-Q-W-Q-R-N-M-A-K-V-R (CFQWQRNMAKVR) [SEQ. ID. NO. 76]”, the results for the MMC99% in the assay with E. coli, with C. albicans and in the assay on S. aureus [1] were 25, 25 and 7, respectively.
As to “C-F-Q-W-Q-R-N-M-K-K-V-R (CFQWQRNMKKVR) [SEQ. ID. NO. 83]”, the figures for the MMC99% in the assay on E. coli, with C. albicans and in the assay on S. aureus [1] were 6, 6 and 7, respectively.
On to “C-F-Q-W-Q-R-N-M-R-A-V-R (CFQWQRNMRAVR) [SEQ. ID. NO. 77]”, for which the MMC99% came out at 12 with E. coli, 25 in the assay on C. albicans and 7 in the assay on S. aureus [1].
In the case of “C-F-Q-W-Q-R-N-M-R-K-A-R (CFQWQRNMRKAR) [SEQ. ID. NO. 78]”, the MMC99% in the assay on E. coli came to 12; with C. albicans it was 25; in the assay with S. aureus [1] it was 7.
For the substance “C-F-Q-W-Q-R-N-M-R-K-V-A (CFQWQRNMRKVA) [SEQ. ID. NO. 79]”, the MMC99% with E. coli amounted to 12; in the assay on C. albicans, 25; in the assay with S. aureus [1], 7.
In the same order, the values of “C-F-Q-W-Q-R-Nle-M-R-K-V-R (CFQWQR[Nle]MRKVR) [SEQ. ID. NO. 90]” are 12, 12 and 3.5.
Regarding “C-F-Q-W-Q-R-Orn-M-R-K-V-R (CFQWQR[Orn]MRKVR) [SEQ. ID. NO. 89]”, the MMC99% was determined as 6 in the assay with E. coli, 6 with C. albicans and 3.5 in the assay on S. aureus [1].
For “Peptide 6: SEQ. ID. NO. 1 with X1 none, X2 none, X5 A, X7 K, X11 D, X17-25 none; 14 residues (Ac-TKAFKWQRDMRKVR)”, in the assay with S. epidermis, the “killing of bacteria: S. epidermis” value is “+ (+ = 99% of the bacteria are killed)”. Besides, the “killing of bacteria: S. aureus” value with S. aureus [2] is given as “+ (+ = 99% of the bacteria are killed)”. In assay [3], the “C. albicans inhibition (OD650)” value is “−”, the “C. albicans killing: 99%” value is recorded as “+ (+ = 100/99% of the bacteria are killed)” and the “C. albicans killing: 100%” value is listed as “− (− = less than 100/99% of the bacteria are killed)”. The “killing of bacteria: K. pneumoniae” value with K. pneumoniae is recorded as “+ (+ = 99% of the bacteria are killed)”. For the same substance, the “killing of bacteria: P. aeruginosa” value in the assay on P. aeruginosa is reported as “+ (+ = 99% of the bacteria are killed)”. For the same substance, the “killing of bacteria: E. faecalis” value in the assay on E. faecalis is on record as “+ (+ = 99% of the bacteria are killed)”.
For the substance “Peptide 62: third embodiment, comprises a cysteine; sequence only in sequence listing (ATKCFQWQRNMRKVR)”, the “killing of bacteria: S. epidermis” value in the assay on S. epidermis is listed as “+ (+ = 99% of the bacteria are killed)”. The “killing of bacteria: S. aureus” value in the assay with S. aureus [2] is reported as “+ (+ = 99% of the bacteria are killed)”. Also, in assay [3], the “C. albicans inhibition (OD650)” value is “+”, the “C. albicans killing: 99%” value is “+ (+ = 100/99% of the bacteria are killed)” and the “C. albicans killing: 100%” value is listed as “− (− = less than 100/99% of the bacteria are killed)”. Besides, the “killing of bacteria: K. pneumoniae” value in the assay on K. pneumoniae is “+ (+ = 99% of the bacteria are killed)”. The “killing of bacteria: P. aeruginosa” value in the assay on P. aeruginosa is reported as “+ (+ = 99% of the bacteria are killed)”. Moreover, the “killing of bacteria: E. faecalis” value in the assay on E. faecalis is on record as “+ (+ = 99% of the bacteria are killed)”.

The values are drawn from patent publication US7803757B2, “Peptides based on the sequence of human lactoferrin and their use” (PharmaSurgics in Sweden AB, priority 1998, dated 2010).
